Where two headings read alike, the source gives them in different places. Marks after values point to notes of the source that are not given here. Each block holds one molecule with its values, some of them ahead of it.
How the values were obtained:
[1] = Tissue concentrations of capecitabine and its metabolites 2 h after oral capecitabine in CES2-modified mice; type: in vivo, mouse; details: oral capecitabine 500 mg/kg; for concentration at 2 h: female, mouse, oral, 500 mg/kg
Experimental: (§1) For capecitabine 2-h experiments, 6–7 female mice received oral capecitabine (500 mg/kg, 10 μL/g), and tail vein blood samples were collected at 0.125, 0.25, 0.5 and 1 h after drug administration. For the vinorelbine 4-h experiment, 6-7 male mice received vinorelbine intravenously (10 mg/kg, 5 μL/g) or orally (10 mg/kg, 10 μL/g) using a blunt-ended needle. Tail vein blood samples were collected at 0.125, 0.25, 0.5, 1 and 2 h after drug administration. […] At the last time point in each experiment (2 or 4 h), mice were anesthetized with 5% isoflurane and blood was collected by cardiac puncture. […] Plasma was isolated from the blood by centrifugation at 9000 × g for 6 min at 4 °C, and the plasma fraction was collected and stored at −30 °C until analysis.
(§2) Concentrations of capecitabine (and its metabolites) and vinorelbine (and its metabolite) in mouse plasma samples and organ homogenates were determined using two independent validated high-performance liquid chromatography-tandem mass spectrometry assays.
(§3) Pharmacokinetic parameters were calculated by non-compartmental methods using the PK solver software. […] Differences were considered statistically significant when P < 0.05. All data are presented as mean ± SD.

[2] = Plasma pharmacokinetics of capecitabine and its metabolites after oral capecitabine in CES2-modified mice; type: in vivo, mouse; details: oral capecitabine 500 mg/kg; for AUC(0-t) / Cmax / Tmax: female, mouse, po, 500 mg/kg; for AUC(0-t) / Cmax / Tmax / AUC0-2h ratio (×10^−3) (5-FU/capecitabine): plasma; for AUC(0-t): read-out: AUC0-2h; for Tmax: read-out: Tmax
Experimental: as §1, §2, §3

[3] = Ces2^-/-, liver, female Ces2^–/– mice, read-out: Cliver (liver concentration)
[4] = Ces2^-/-, small intestine, female Ces2^–/– mice, read-out: CSI (small intestine tissue concentration)
[5] = Ces2^-/-A, liver, female Ces2^–/–A mice, read-out: Cliver (liver concentration)
[6] = Ces2^-/-A, small intestine tissue, female Ces2^–/–A mice, read-out: CSI (small intestine tissue concentration)
[7] = Ces2^-/-V, liver, female Ces2^–/–V mice, read-out: Cliver (liver concentration)
[8] = Ces2^-/-V, small intestine, female Ces2^–/–V mice, read-out: CSI (small intestine tissue concentration)
[9] = colon, female Ces2^–/– mice, read-out: Ccolon (colon concentration)
[10] = colon, female Ces2^–/–A mice, read-out: Ccolon (colon concentration)
[11] = colon, female Ces2^–/–V mice, read-out: Ccolon (colon concentration)
[12] = colon, female wild-type mice, read-out: Ccolon (colon concentration)
[13] = liver, female wild-type mice, read-out: Cliver (liver concentration)
[14] = small intestine contents, female Ces2^–/– mice, read-out: CSIC (small intestine contents concentration)
[15] = small intestine contents, female Ces2^–/–A mice, read-out: CSIC (small intestine contents concentration)
[16] = small intestine contents, female Ces2^–/–V mice, read-out: CSIC (small intestine contents concentration)
[17] = small intestine contents, female wild-type mice, read-out: CSIC (small intestine contents concentration)
[18] = small intestine tissue, female wild-type mice, read-out: CSI (small intestine tissue concentration)
[19] = Ces2^–/– (Ces2 cluster knockout), female Ces2^–/– mice
[20] = Ces2^–/– (Ces2 cluster knockout), female Ces2^–/– mice, read-out: Cmax
[21] = female Ces2^–/–A mice, read-out: Cmax
[22] = female Ces2^–/–V mice, read-out: Cmax
[23] = female wild-type mice, read-out: Cmax

liver concentration, fold greater in Ces2^–/– than in wild-type mice ([1]; female mice): 13.8 fold | liver concentration, reduction in Ces2^–/–A compared with Ces2^–/– mice ([1]; female mice): 74.2% | liver concentration, reduction in Ces2^–/–V compared with Ces2^–/– mice ([1]; female mice): 63.5% | small intestine concentration, fold higher in Ces2^-/- than in wild-type mice ([1]; female mice): 10.6 fold | concentration at 2 h [1, 3]: 18000 ± 8740 ng/g | concentration at 2 h [1, 4]: 17200 ± 6550 ng/g | concentration at 2 h [1, 5]: 4650 ± 1760 ng/g | concentration at 2 h [1, 6]: 15200 ± 6020 ng/g | concentration at 2 h [1, 7]: 6570 ± 3220 ng/g | concentration at 2 h [1, 8]: 2410 ± 1190 ng/g | concentration at 2 h ([1]; Ces2^–/– (Ces2 cluster knockout), small intestine, female Ces2^–/– mice, read-out: CSI (small intestine tissue concentration)): 17200 ng/g | concentration at 2 h [1, 9]: 14300 ± 9020 ng/g | concentration at 2 h [1, 10]: 8780 ± 1630 ng/g | concentration at 2 h [1, 11]: 4970 ± 2980 ng/g | concentration at 2 h [1, 12]: 2250 ± 712 ng/g | concentration at 2 h [1, 13]: 1300 ± 522 ng/g | concentration at 2 h [1, 14]: 97200 ± 37200 ng/g | concentration at 2 h [1, 15]: 88500 ± 25100 ng/g | concentration at 2 h [1, 16]: 49700 ± 45900 ng/g | concentration at 2 h [1, 17]: 26500 ± 16300 ng/g | concentration at 2 h [1, 18]: 1630 ± 865 ng/g | concentration at 2 h ([1]; small intestine, female Ces2^–/–V mice, read-out: CSI (small intestine tissue concentration)): 2410 ± 1190 ng/g | plasma AUC0-2h, fold greater in Ces2^–/– than in wild-type mice ([2]; female mice): 5.3 fold | plasma AUC0-2h, lower in Ces2^–/–V than in Ces2^–/– mice ([2]; female mice): 44% | AUC(0-t) [2, 19]: 31300 ± 16600 ng·h/mL | Cmax [2, 20]: 42600 ± 17800 ng/mL | Tmax [2, 19]: 12.6 ± 3.6 min | AUC(0-t) ([2]; female Ces2^–/–A mice): 31500 ± 19200 ng·h/mL | Cmax [2, 21]: 47000 ± 34100 ng/mL | Tmax ([2]; female Ces2^–/–A mice): 10.2 ± 4.2 min | AUC(0-t) ([2]; female Ces2^–/–V mice): 17500 ± 9710 ng·h/mL | Cmax [2, 22]: 23400 ± 14100 ng/mL | Tmax ([2]; female Ces2^–/–V mice): 9.6 ± 3.6 min | AUC(0-t) ([2]; female wild-type mice): 5850 ± 1380 ng·h/mL | Cmax [2, 23]: 12200 ± 3800 ng/mL | Tmax ([2]; female wild-type mice): 11.4 ± 4.2 min
SMILES: CCCCCOC(=O)Nc1nc(=O)n([C@@H]2O[C@H](C)[C@@H](O)[C@H]2O)cc1F [Capecitabine, reference compound]

Colon concentration ratio (metabolite/capecitabine) ([1]; female Ces2^–/– mice): 0.14 ± 0.03 | Liver concentration ratio (metabolite/capecitabine) ([1]; female Ces2^–/– mice): 0.09 ± 0.03 | Small intestine concentration ratio (metabolite/capecitabine) ([1]; female Ces2^–/– mice): 0.32 ± 0.10 | Small intestine contents Ratio (x 10^-3) (5-FU/Capecitabine) ([1]; female Ces2^–/– mice): 2.1 ± 0.7 x 10^-3 | Colon concentration ratio (metabolite/capecitabine) ([1]; female Ces2^–/–A mice): 0.17 ± 0.02 | Liver concentration ratio (metabolite/capecitabine) ([1]; female Ces2^–/–A mice): 0.52 ± 0.25 | Small intestine concentration ratio (metabolite/capecitabine) ([1]; female Ces2^–/–A mice): 0.32 ± 0.11 | Small intestine contents Ratio (x 10^-3) (5-FU/Capecitabine) ([1]; female Ces2^–/–A mice): 1.9 ± 1.6 x 10^-3 | Colon concentration ratio (metabolite/capecitabine) ([1]; female Ces2^–/–V mice): 0.50 ± 0.18^###^^^ | Liver concentration ratio (metabolite/capecitabine) ([1]; female Ces2^–/–V mice): 0.24 ± 0.07***^###^ | Small intestine concentration ratio (metabolite/capecitabine) ([1]; female Ces2^–/–V mice): 2.0 ± 0.9^###^^^ | Small intestine contents Ratio (x 10^-3) (5-FU/Capecitabine) ([1]; female Ces2^–/–V mice): 6.8 ± 3.0##^^ x 10^-3 | Colon concentration ratio (metabolite/capecitabine) ([1]; female wild-type mice): 0.53 ± 0.09 | Liver concentration ratio (metabolite/capecitabine) ([1]; female wild-type mice): 0.65 ± 0.31 | Small intestine concentration ratio (metabolite/capecitabine) ([1]; female wild-type mice): 2.1 ± 0.8 | Small intestine contents Ratio (x 10^-3) (5-FU/Capecitabine) ([1]; female wild-type mice): 5.1 ± 3.4 x 10^-3 | concentration at 2 h [1, 3]: 1520 ± 765 ng/g | concentration at 2 h [1, 4]: 5200 ± 2040 ng/g | concentration at 2 h [1, 5]: 2140 ± 372 ng/g | concentration at 2 h [1, 6]: 4430 ± 1510 ng/g | concentration at 2 h [1, 7]: 1420 ± 574 ng/g | concentration at 2 h [1, 8]: 4120 ± 1840 ng/g | concentration at 2 h [1, 9]: 1830 ± 1010 ng/g | concentration at 2 h [1, 10]: 1460 ± 233 ng/g | concentration at 2 h [1, 11]: 2100 ± 1020 ng/g | concentration at 2 h [1, 12]: 1190 ± 486 ng/g | concentration at 2 h [1, 13]: 747 ± 184 ng/g | concentration at 2 h [1, 14]: 200 ± 109 ng/g | concentration at 2 h [1, 15]: 142 ± 64 ng/g | concentration at 2 h [1, 16]: 263 ± 149 ng/g | concentration at 2 h [1, 17]: 125 ± 90 ng/g | concentration at 2 h [1, 18]: 3020 ± 835 ng/g | AUC0-2h ratio (×10^−3) (5-FU/capecitabine) ([2]; female Ces2^–/– mice): 6.4 ± 2.1 ×10^−3 | AUC0-2h ratio (×10^−3) (5-FU/capecitabine) ([2]; female Ces2^–/–A mice): 8.0 ± 2.7 ×10^−3 | AUC0-2h ratio (×10^−3) (5-FU/capecitabine) ([2]; female Ces2^–/–V mice): 13 ± 1.6***^###^ ×10^−3 | AUC0-2h ratio (×10^−3) (5-FU/capecitabine) ([2]; female wild-type mice): 29 ± 8.1 ×10^−3 | AUC(0-t) [2, 19]: 187 ± 98 ng·h/mL | Cmax [2, 20]: 147 ± 96 ng/mL | Tmax [2, 19]: 55.8 ± 11.4 min | AUC(0-t) ([2]; female Ces2^–/–A mice): 218 ± 79 ng·h/mL | Cmax [2, 21]: 159 ± 56 ng/mL | Tmax ([2]; female Ces2^–/–A mice): 55.2 ± 12 min | AUC(0-t) ([2]; female Ces2^–/–V mice): 215 ± 100 ng·h/mL | Cmax [2, 22]: 156 ± 81 ng/mL | Tmax ([2]; female Ces2^–/–V mice): 51.6 ± 14.4 min | AUC(0-t) ([2]; female wild-type mice): 168 ± 41 ng·h/mL | Cmax [2, 23]: 105 ± 36 ng/mL | Tmax ([2]; female wild-type mice): 30 ± 16.2 min | Cmax ([2]; female wild-type, Ces2^–/–, Ces2^–/–A and Ces2^–/–V mice, read-out: mean Cmax, range over the mouse models): 105 to 159 ng/mL
SMILES: O=c1[nH]cc(F)c(=O)[nH]1 [5-FU, 5-fluorouracil, reference compound]

From publication PMC11845761, “Intestinal human carboxylesterase 2 (CES2) expression rescues drug metabolism and most metabolic syndrome phenotypes in global Ces2 cluster knockout mice” (Acta Pharmacologica Sinica, 2024)
